Test results reported in the CheMixHub viscosity set.

Experiment: xn = mol fraction of the nth substance listed

CCCCC/C=C\C/C=C\CCCCCCCC(=O)OCC(COC(=O)CCCCCCC/C=C\C/C=C\CCCCC)OC(=O)CCCCCCC/C=C\C/C=C\CCCCC + Cc1ccc(C)cc1
viscosity [mPa·s], 101.3 kPa
Conditions	x1 = 0.000712	x1 = 0.001435	x1 = 0.00217	x1 = 0.002914	x1 = 0.003771	x1 = 0.004524	x1 = 0.005322	x1 = 0.006113
298.15 K	0.6159	0.6268	0.638	0.6494	0.6627	0.6742	0.6861	0.6966
303.15 K	0.5801	0.5903	0.6008	0.6115	0.6238	0.6346	0.6455	0.6549
308.15 K	0.5474	0.557	0.5668	0.5769	0.5885	0.5985	0.6085	0.617
313.15 K	0.5174	0.5265	0.5358	0.5453	0.5561	0.5654	0.5747	0.5824
318.15 K	0.49	0.4986	0.5074	0.5163	0.5265	0.5352	0.5437	0.5507

C=C(C)C(=O)OC + Cc1ccccc1
303.15 K, 101 kPa
Conditions	viscosity [mPa·s]
x1 = 0.1041	0.5201
x1 = 0.2049	0.5187
x1 = 0.4069	0.5163
x1 = 0.5046	0.5155
x1 = 0.6068	0.5148
x1 = 0.798	0.5141
x1 = 0.896	0.5141

CCCCCCCCCCCCCCCCCCO + CCCO
298.15 K, 101 kPa
Conditions	viscosity [mPa·s]
x1 = 0.0016	2.071
x1 = 0.0028	2.011
x1 = 0.0106	2.164
x1 = 0.0212	2.332

C=C(C)C(=O)OC + CCCCOCCO
viscosity [mPa·s], 101.3 kPa
Conditions	298.15 K	308.15 K
x1 = 0.0589	2.45	1.998
x1 = 0.1467	2.063	1.704
x1 = 0.2571	1.682	1.408
x1 = 0.3556	1.416	1.196
x1 = 0.4555	1.201	1.021
x1 = 0.5016	1.117	0.952
x1 = 0.5559	1.028	0.878
x1 = 0.6734	0.868	0.742
x1 = 0.7556	0.778	0.664
x1 = 0.857	0.686	0.583
x1 = 0.9547	0.613	0.518

ClCCCCCCCl + Cc1ccc(C)cc1
viscosity [mPa·s], 101 kPa
Conditions	x1 = 0.08955	x1 = 0.1825	x1 = 0.2818	x1 = 0.3684	x1 = 0.4454	x1 = 0.5735	x1 = 0.6793	x1 = 0.7843	x1 = 0.8888
308.15 K	0.586	0.645	0.722	0.802	0.878	1.027	1.154	1.307	1.45
313.15 K	0.558	0.621	0.686	0.756	0.83	0.972	1.095	1.242	1.378
318.15 K	0.534	0.595	0.653	0.714	0.78	0.899	1.014	1.134	1.267

C[n+]1ccn(CC(=O)O)c1.[Cl-] + O
298.15 K, 101 kPa
Conditions	viscosity [mPa·s]
x1 = 0.0009	0.911
x1 = 0.001	0.915
x1 = 0.002	0.917

[I-].[Na+] + OCCO
101 kPa, x1 = 0.2
Conditions	viscosity [mPa·s]
303 K	47.72
313 K	29.93
323 K	20.08

CCCCC/C=C\C/C=C\CCCCCCCC(=O)OCC(COC(=O)CCCCCCC/C=C\C/C=C\CCCCC)OC(=O)CCCCCCC/C=C\C/C=C\CCCCC + c1ccccc1
viscosity [mPa·s], 101.3 kPa
Conditions	x1 = 0.000427	x1 = 0.000515	x1 = 0.000838	x1 = 0.001044	x1 = 0.001751	x1 = 0.004505	x1 = 0.007049	x1 = 0.009645
298.15 K	0.6136	0.6153	0.6216	0.6257	0.6401	0.6974	0.7485	0.8054
303.15 K	0.5723	0.5739	0.5797	0.5836	0.597	0.6502	0.6975	0.7492
308.15 K	0.535	0.5365	0.5419	0.5455	0.558	0.6077	0.6515	0.6986

CCCCOP(=O)(O)OCCCC + CC(C)N
297 K, 101 kPa
Conditions	viscosity [mPa·s]
x2 = 0.15	80
x2 = 0.3	240
x2 = 0.48	4070
x2 = 0.5	4750
x2 = 0.66	260
x2 = 0.85	100

C=C(C)C(=O)OC + CC#N
viscosity [mPa·s], 101 kPa
Conditions	298.15 K	303.15 K	308.15 K	313.15 K	318.15 K
x2 = 0.0688	0.5536	0.5171	0.4878	0.4643	0.4465
x2 = 0.1376	0.5439	0.5091	0.4811	0.4585	0.4413
x2 = 0.1957	0.5346	0.5013	0.4745	0.4526	0.4359
x2 = 0.2716	0.5214	0.4899	0.4643	0.4435	0.4275
x2 = 0.3344	0.5094	0.4795	0.455	0.435	0.4194
x2 = 0.4135	0.4932	0.4651	0.442	0.423	0.4079
x2 = 0.4916	0.4761	0.4498	0.4281	0.41	0.3954
x2 = 0.5649	0.4592	0.4344	0.4138	0.3967	0.3825
x2 = 0.6386	0.4413	0.4183	0.3988	0.3825	0.3687
x2 = 0.7084	0.4238	0.4023	0.3839	0.3683	0.3549
x2 = 0.7927	0.402	0.3823	0.3652	0.3505	0.3375
x2 = 0.855	0.3855	0.3672	0.351	0.3367	0.324
x2 = 0.9073	0.3714	0.3541	0.3387	0.3249	0.3123
x2 = 0.9497	0.3599	0.3435	0.3286	0.3152	0.3028
